This is an account of results in the NIST ThermoML archive (doi:10.1016/j.jct.2015.08.028).

Each structure is given as a SMILES string. ± gives the expanded uncertainty stated by the source.

The conditions of series [1]: Crystal; DTA.
Series [2] in a line: Molar enthalpy of transition or fusion. To be noted: Crystal; DSC.

Consider `CC1=C(O)C(=O)C(C)O1` (configuration not stated) [4-hydroxy-2,5-dimethyl-3(2H)-furanone], for which the Normal melting temperature in series [1] is 80.8 ± 1.6 °C. Further, in series [2], the “Molar enthalpy of transition or fusion” value worked out at 4.61 ± 0.12 kcal/mol.
